Assays:
[1] = target: T1, RPUSD3 RNA pseudouridylate synthase domain-containing pro (Homo sapiens, UniProt Q6P087); assay: Cysteine liganding, probe competition; format: binding
T1 construct: Cells were resuspended in cold PBS on ice and sonicated with a probe sonicator to achieve lysis; endogenous in cells
T1 sequence (Q6P087 26-351): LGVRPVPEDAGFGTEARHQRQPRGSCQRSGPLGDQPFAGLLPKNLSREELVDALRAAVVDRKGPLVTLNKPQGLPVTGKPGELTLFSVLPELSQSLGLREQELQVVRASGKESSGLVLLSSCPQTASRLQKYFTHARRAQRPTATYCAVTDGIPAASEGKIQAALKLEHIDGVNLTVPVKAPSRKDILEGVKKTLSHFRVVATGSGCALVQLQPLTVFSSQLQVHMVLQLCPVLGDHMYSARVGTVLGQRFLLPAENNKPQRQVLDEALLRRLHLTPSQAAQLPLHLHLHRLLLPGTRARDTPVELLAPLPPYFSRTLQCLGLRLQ
Method in brief: (§1)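 Probe competition in native proteome: 5 mg/ml lysate, compound 1 hr 25° C, then desthiobiotin iodoacetamide (10 mM stock) 1 hr 25° C; acetone ppt, urea/DTT reduction, iodoacetamide alkylation, trypsin, streptavidin pull-down.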

[2] = target: T2, PIAS4 E3 SUMO-protein ligase PIAS4 (Homo sapiens, UniProt Q8N2W9); assay: Cysteine liganding, probe competition; format: binding; conditions: for Liganded: PIAS4 Res# 326, uniprot Q8N2W9
T2 construct: Cells were resuspended in cold PBS on ice and sonicated with a probe sonicator to achieve lysis; endogenous in cells
T2 sequence (Q8N2W9 1-510): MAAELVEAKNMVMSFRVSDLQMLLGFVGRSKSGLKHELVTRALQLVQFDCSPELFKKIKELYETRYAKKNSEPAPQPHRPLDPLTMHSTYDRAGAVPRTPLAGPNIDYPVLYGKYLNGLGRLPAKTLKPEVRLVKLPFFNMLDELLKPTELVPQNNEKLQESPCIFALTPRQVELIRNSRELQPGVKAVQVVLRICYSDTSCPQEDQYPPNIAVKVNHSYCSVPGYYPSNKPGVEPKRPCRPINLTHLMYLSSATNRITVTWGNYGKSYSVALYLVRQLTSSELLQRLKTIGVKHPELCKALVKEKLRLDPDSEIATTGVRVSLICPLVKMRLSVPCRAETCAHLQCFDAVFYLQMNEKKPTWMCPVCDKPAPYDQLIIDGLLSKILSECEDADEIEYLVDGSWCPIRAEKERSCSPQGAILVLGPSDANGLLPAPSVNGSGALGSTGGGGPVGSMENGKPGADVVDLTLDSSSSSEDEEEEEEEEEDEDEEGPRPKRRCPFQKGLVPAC
Method in brief: as §1

SMILES | Liganded ([1]; RPUSD3 Res# 147, uniprot Q6P087) | Liganded [2] | 100 Max ([1]; uniprot Q6P087) | 100 ave ([1]; uniprot Q6P087) | 500 Max ([1]; uniprot Q6P087) | 500 ave ([1]; uniprot Q6P087) | KB03_100 uM_percent_inhibition ([2]; UniProt Q8N2W9, 100 uM) [%] | 100 Max ([2]; uniprot Q8N2W9) | 100 ave ([2]; uniprot Q8N2W9) | 500 Max ([2]; uniprot Q8N2W9) | 500 ave ([2]; uniprot Q8N2W9)
COc1ccc2c(c1)CCCN2C(=O)CCl [KB02] | YES | YES | – | – | – | – | – | – | – | – | –
O=C(CCl)Nc1cc(C(F)(F)F)cc(C(F)(F)F)c1 [KBO3] | – | YES | 14.63 | 9.07 | 49.47 | 49.47 | 80 | 35.5 | 30.1 | 87.0 | 75.4

Reference: patent US20200239530A1, “COMPOUNDS AND METHODS OF MODULATING PROTEIN DEGRADATION” (Vividion Therapeutics, Inc., priority 2017, published 2020)
